Here are results for 14 compounds from ChEMBL document CHEMBL5543145, “Discovery of the First-in-Class G9a/GLP PROTAC Degrader” (J Med Chem, 2024).

The target in assay [1] is T1, von Hippel-Lindau disease tumor suppressor/Histone-lysine N-methyltransferase EHMT2 (Homo sapiens, UniProt Q96KQ7+P40337). Briefly: PROTAC activity at G9a/VHL in human 22Rv1 cells assessed as induction of G9a degradation at 0.3 uM incubated for 24 hrs by Western blot analysis relative to control. The class given is cell-based.
T1 sequence (P40337 whole entry partner): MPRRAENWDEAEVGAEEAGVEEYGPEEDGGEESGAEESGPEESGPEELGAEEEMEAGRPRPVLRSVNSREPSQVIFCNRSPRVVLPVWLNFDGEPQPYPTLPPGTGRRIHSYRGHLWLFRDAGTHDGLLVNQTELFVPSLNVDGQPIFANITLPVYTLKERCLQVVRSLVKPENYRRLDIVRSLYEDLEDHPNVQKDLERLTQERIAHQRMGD
T1 sequence (Q96KQ7 2-1210 limits assumed): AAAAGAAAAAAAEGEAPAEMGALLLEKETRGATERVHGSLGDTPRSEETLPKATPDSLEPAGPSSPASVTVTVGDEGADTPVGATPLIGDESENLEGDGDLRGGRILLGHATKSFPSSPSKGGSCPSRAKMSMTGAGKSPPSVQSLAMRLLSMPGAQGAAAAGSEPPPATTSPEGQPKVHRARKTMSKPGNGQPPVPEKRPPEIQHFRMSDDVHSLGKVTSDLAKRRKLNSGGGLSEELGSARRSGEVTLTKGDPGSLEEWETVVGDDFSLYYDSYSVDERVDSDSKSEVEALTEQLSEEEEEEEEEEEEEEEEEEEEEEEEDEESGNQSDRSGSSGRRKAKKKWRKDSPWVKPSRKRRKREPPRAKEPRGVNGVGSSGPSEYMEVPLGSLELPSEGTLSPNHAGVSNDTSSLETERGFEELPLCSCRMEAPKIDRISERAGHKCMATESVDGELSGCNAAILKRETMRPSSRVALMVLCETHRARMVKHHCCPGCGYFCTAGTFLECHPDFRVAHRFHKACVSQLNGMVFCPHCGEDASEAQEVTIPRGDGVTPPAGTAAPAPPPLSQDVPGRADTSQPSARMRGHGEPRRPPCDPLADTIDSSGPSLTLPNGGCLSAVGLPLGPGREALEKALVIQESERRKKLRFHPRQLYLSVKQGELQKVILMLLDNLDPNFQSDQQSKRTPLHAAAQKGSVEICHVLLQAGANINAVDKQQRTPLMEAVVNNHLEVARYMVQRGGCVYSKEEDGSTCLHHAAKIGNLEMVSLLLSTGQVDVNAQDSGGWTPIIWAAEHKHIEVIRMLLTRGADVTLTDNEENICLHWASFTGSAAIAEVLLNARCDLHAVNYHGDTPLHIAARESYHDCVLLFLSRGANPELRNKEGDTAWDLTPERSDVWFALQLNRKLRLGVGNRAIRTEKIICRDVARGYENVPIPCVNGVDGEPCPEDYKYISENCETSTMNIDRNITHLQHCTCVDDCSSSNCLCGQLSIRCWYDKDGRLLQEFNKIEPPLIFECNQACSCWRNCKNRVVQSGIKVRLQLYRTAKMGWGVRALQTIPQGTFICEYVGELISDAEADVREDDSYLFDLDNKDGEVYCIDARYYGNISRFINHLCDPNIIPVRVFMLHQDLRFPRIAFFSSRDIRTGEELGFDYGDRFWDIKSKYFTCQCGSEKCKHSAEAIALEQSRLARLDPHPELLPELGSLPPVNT
Assay [2] deals with T2, von Hippel-Lindau disease tumor suppressor/Histone-lysine N-methyltransferase EHMT1 (Homo sapiens, UniProt Q9H9B1+P40337). Briefly: PROTAC activity at GLP/VHL in human 22Rv1 cells assessed as induction of GLP degradation at 0.3 uM incubated for 24 hrs by Western blot analysis relative to control. The class given is cell-based.
T2 sequence (P40337 whole entry partner): as the sequence (P40337 whole entry partner) above
T2 sequence (Q9H9B1 2-1298 limits assumed): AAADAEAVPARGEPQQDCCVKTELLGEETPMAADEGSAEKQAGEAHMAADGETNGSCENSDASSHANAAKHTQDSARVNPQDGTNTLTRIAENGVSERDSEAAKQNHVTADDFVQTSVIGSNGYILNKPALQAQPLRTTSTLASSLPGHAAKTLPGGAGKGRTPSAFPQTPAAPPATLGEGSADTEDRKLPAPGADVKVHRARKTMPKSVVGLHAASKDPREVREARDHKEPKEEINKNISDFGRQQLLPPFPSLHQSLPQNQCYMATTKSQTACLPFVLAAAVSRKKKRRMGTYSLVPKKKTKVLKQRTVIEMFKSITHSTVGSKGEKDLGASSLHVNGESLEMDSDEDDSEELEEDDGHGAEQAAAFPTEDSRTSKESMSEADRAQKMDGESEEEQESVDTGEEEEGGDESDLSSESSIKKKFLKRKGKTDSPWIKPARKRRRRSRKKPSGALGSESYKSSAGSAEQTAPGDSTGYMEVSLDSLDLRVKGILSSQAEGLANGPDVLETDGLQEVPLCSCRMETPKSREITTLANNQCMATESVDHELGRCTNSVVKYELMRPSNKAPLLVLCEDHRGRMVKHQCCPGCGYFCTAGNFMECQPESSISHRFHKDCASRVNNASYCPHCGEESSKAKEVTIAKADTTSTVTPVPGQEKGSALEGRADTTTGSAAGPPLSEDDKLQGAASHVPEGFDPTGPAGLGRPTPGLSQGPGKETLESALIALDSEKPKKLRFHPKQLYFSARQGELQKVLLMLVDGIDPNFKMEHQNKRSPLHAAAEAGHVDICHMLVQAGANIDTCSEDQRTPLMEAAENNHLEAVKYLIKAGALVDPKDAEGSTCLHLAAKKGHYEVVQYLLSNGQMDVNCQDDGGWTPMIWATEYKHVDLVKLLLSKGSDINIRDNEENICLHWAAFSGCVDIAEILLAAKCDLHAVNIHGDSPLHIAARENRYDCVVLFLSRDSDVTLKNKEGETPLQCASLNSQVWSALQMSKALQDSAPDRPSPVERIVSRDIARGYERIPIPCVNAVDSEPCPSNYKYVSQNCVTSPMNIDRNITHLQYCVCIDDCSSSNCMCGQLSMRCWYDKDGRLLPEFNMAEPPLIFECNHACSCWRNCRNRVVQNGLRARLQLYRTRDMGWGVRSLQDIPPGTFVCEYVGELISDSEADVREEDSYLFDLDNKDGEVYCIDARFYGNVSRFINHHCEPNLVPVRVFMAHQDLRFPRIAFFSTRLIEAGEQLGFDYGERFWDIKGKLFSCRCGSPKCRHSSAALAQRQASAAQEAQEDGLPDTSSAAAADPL
The target in assay [3] is T2, von Hippel-Lindau disease tumor suppressor/Histone-lysine N-methyltransferase EHMT1. Briefly: PROTAC activity at GLP/VHL in human 22Rv1 cells assessed as induction of GLP degradation at 3 uM incubated for 24 hrs by Western blot analysis relative to control. The class given is cell-based.
Assay [4] addresses T1, von Hippel-Lindau disease tumor suppressor/Histone-lysine N-methyltransferase EHMT2. Briefly: PROTAC activity at G9a/VHL in human 22Rv1 cells assessed as induction of G9a degradation at 3 uM incubated for 24 hrs by Western blot analysis relative to control. In kind it is cell-based.
Assay [5] concerns the target T2, von Hippel-Lindau disease tumor suppressor/Histone-lysine N-methyltransferase EHMT1. In words: PROTAC activity at GLP/VHL in human 22Rv1 cells assessed as induction of GLP degradation at 1 uM incubated for 24 hrs by Western blot analysis. The class given is cell-based.
For a further assay, the system named is CWR22R. Briefly: Cytotoxicity against human 22Rv1 cells assessed as growth inhibition measured for 7 days. The class given is functional. The settings on record: 22Rv1, 168 h, time 7 day.
The target in assay [6] is T2, von Hippel-Lindau disease tumor suppressor/Histone-lysine N-methyltransferase EHMT1. Briefly: PROTAC activity at GLP/VHL in human 22Rv1 cells assessed as effect on VHL level at 3 uM incubated for 24 hrs by RT-qPCR analysis. The class given is cell-based.
Assay [7] concerns K562. Briefly: Cytotoxicity against human K562 cells assessed as growth inhibition incubated for 7 days. The class given is functional. The settings on record: time 7.0 day.
For assay [8], the system named is K562. Briefly: Cytotoxicity against human K562 cells assessed as reduction in cell viability incubated for 8 days. The class given is functional, cell-based. The settings on record: K562, 192 h.
The next assay concerns NCI-H1299. In words: Cytotoxicity against human NCI-H1299 cells assessed as growth inhibition incubated for 8 days. In kind it is functional. As to conditions: NCI-H1299, 192 h, time 8 day.
Assay [9] deals with T1, von Hippel-Lindau disease tumor suppressor/Histone-lysine N-methyltransferase EHMT2. In words: PROTAC activity at G9a/VHL in human 22Rv1 cells assessed as effect on G9a level upto 3 uM measured for 24 hrs by Western blot analysis. The class given is cell-based.
In assay [10] the target is T2, von Hippel-Lindau disease tumor suppressor/Histone-lysine N-methyltransferase EHMT1. Briefly: PROTAC activity at GLP/VHL in human 22Rv1 cells assessed as effect on GLP level upto 3 uM measured for 24 hrs by Western blot analysis. The class given is cell-based.

Structures are written as SMILES. The source made the active and inactive calls. No cut-off for these calls is given here. Where only a bound is given, the exact number is not on record here.

On to `COc1cc2c(NC3CCN(CCCC(=O)NCCCC(=O)N[C@H](C(=O)N4C[C@H](O)C[C@H]4C(=O)NCc4ccc(-c5scnc5C)cc4)C(C)(C)C)CC3)nc(N3CCC(F)(F)CC3)nc2cc1OCCCN1CCCC1`, for which the Emax was less than 8% in [1], less than 3% in [2] and 21% in [3].

`COc1cc2c(NC3CCN(CCCC(=O)NCCCCCC(=O)N[C@H](C(=O)N4C[C@H](O)C[C@H]4C(=O)NCc4ccc(-c5scnc5C)cc4)C(C)(C)C)CC3)nc(N3CCC(F)(F)CC3)nc2cc1OCCCN1CCCC1`: the figures for the Emax in assay [4], in [2] and in [3] were less than 30%, less than 5% and less than 19%, respectively.

As for `COc1cc2c(NC3CCN(C(C)C)CC3)nc(N3CCC(F)(F)CC3)nc2cc1OCCCN1CCCC1`, the result (in assay [5]; with K562 [7]) was inactive. For the same compound, the GI50 in the assay with CWR22R and in the assay on NCI-H1299 was more than 10 µM throughout. In addition, the result in assay [6] was Active. Further, in the assay with K562 [8], the IC50 was more than 10 µM.

`COc1cc2c(NC3CCN(CCCC(=O)NCCCCCCC(=O)N[C@H](C(=O)N4C[C@H](O)C[C@H]4C(=O)NCc4ccc(-c5scnc5C)cc4)C(C)(C)C)CC3)nc(N3CCC(F)(F)CC3)nc2cc1OCCCN1CCCC1`: the Emax was less than 10% in assay [1], less than 30% in [4], less than 7% in [2] and less than 20% in assay [3].

Consider `COc1cc2c(NN3CCN(CCCC(=O)NCCCCCCCCC(=O)N[C@H](C(=O)N4C[C@H](O)C[C@H]4C(=O)NCc4ccc(-c5scnc5C)cc4)C(C)(C)C)CC3)nc(N3CCC(F)(F)CC3)nc2cc1OCCCN1CCCC1`, for which the Emax in assay [4] is 87%; in assay [2] it was less than 27%; in assay [3] it was 86%.

Turning to `COc1cc2c(NC3CCN(CCCC(=O)NCCCCC(=O)N[C@H](C(=O)N4C[C@H](O)C[C@H]4C(=O)NCc4ccc(-c5scnc5C)cc4)C(C)(C)C)CC3)nc(N3CCC(F)(F)CC3)nc2cc1OCCCN1CCCC1`, the Emax was less than 11% in [4], less than 9% in [2] and less than 11% in [3].

For the compound `COc1cc2c(NC3CCN(CCCC(=O)NCCOCCC(=O)N[C@H](C(=O)N4C[C@H](O)C[C@H]4C(=O)NCc4ccc(-c5scnc5C)cc4)C(C)(C)C)CC3)nc(N3CCC(F)(F)CC3)nc2cc1OCCCN1CCCC1`, the Emax is less than 10% in [2] and 88% in [3].

`COc1cc2c(NC3CCN(CCCC(=O)NCCCCCCCCCC(=O)N[C@H](C(=O)N4C[C@H](O)C[C@H]4C(=O)NCc4ccc(-c5scnc5C)cc4)C(C)(C)C)CC3)nc(N3CCC(F)(F)CC3)nc2cc1OCCCN1CCCC1`: the Emax is 67% in [1], less than 92% in assay [4], 84% in assay [2] and less than 96% in assay [3].

In the case of `COc1cc2c(NC3CCN(CCCC(=O)NCCCCCCCCCCC(=O)N[C@H](C(=O)N4C[C@H](O)C[C@H]4C(=O)NCc4ccc(-c5scnc5C)cc4)C(C)(C)C)CC3)nc(N3CCC(F)(F)CC3)nc2cc1OCCCN1CCCC1`, the Emax was 79% in assay [1], less than 92% in assay [4], 69% in assay [2] and less than 94% in [3].

For `COc1cc2c(NC3CCN(CCCC(=O)NCCOCCOCCOCCC(=O)N[C@H](C(=O)N4C[C@H](O)C[C@H]4C(=O)NCc4ccc(-c5scnc5C)cc4)C(C)(C)C)CC3)nc(N3CCC(F)(F)CC3)nc2cc1OCCCN1CCCC1`, the results for the Emax in [2] and in assay [3] were less than 16% and less than 27%, respectively.

`COc1cc2c(NC3CCN(CCCC(=O)NCCCCCCCC(=O)N[C@H](C(=O)N4C[C@H](O)C[C@H]4C(=O)NCc4ccc(-c5scnc5C)cc4)C(C)(C)C)CC3)nc(N3CCC(F)(F)CC3)nc2cc1OCCCN1CCCC1`: the Emax was 75% in [4], less than 28% in assay [2] and 68% in [3].

With `COc1cc2c(NC3CCN(CCCC(=O)NCCCCCCCCCCCC(=O)N[C@H](C(=O)N4C[C@@H](O)C[C@@H]4C(=O)NCc4ccc(-c5scnc5C)cc4)C(C)(C)C)CC3)nc(N3CCC(F)(F)CC3)nc2cc1OCCCN1CCCC1`, the outcome in assay [9] and in assay [10] was inactive.

Regarding `COc1cc2c(NC3CCN(CCCC(=O)NCCOCCOCCC(=O)N[C@H](C(=O)N4C[C@H](O)C[C@H]4C(=O)NCc4ccc(-c5scnc5C)cc4)C(C)(C)C)CC3)nc(N3CCC(F)(F)CC3)nc2cc1OCCCN1CCCC1`, the Emax was less than 13% in assay [4], less than 7% in [2] and 21% in [3].

For the compound `COc1cc2c(NC3CCN(CCCC(=O)NCCC(=O)N[C@H](C(=O)N4C[C@H](O)C[C@H]4C(=O)NCc4ccc(-c5scnc5C)cc4)C(C)(C)C)CC3)nc(N3CCC(F)(F)CC3)nc2cc1OCCCN1CCCC1`, the Emax in assay [1] was 66%; in [4] it was 61%; in assay [2], 54%; in [3], 70%.
